# Assay results: patent US20260152794A1, “EFFICACY OF CHRONIC PELVIC PAIN TREATMENT” (THE UNIVERSITY COURT OF THE UNIVERSITY OF EDINBURGH, priority 2022, published 2026)
# Key:
# [1] = tested on: women with chronic pelvic pain; conditions: embedded mechanistic study of GaPP2 (reference 8); cited from earlier work
# [2] = tested on: women with chronic pelvic pain; conditions: GaPP2 trial, women with CPP (reference 7); cited from earlier work
# [3] = tested on: women with chronic pelvic pain; conditions: GaPP2 trial, women with CPP (reference 7); cited from earlier work; remark: listed apart in the source
# [4] = tested on: women with chronic pelvic pain; test: GaPP2 trial secondary analysis: gabapentin analgesic (pain) response, worst and average pain on numerical rating scale; type: in vivo, human; conditions: for Average pain (NRS), End of study: mean; for Average pain (NRS), End of study / Worst pain (NRS), End of study: numerical rating scale 1-10; for Worst pain (NRS), End of study: median
# Source text: (§1) This study is a planned secondary analysis of the GaPP2 trial, a UK-based multicentre, randomised, placebo-controlled trial of gabapentin versus placebo in women with chronic pelvic pain. Trial protocol including ethical approval and exclusion and inclusion criteria are published in full elsewhere. (17) All participants were women aged 18-50 years of age, were using or willing to use contraception to avoid pregnancy and had no obvious pelvic pathology at laparoscopy which must have taken place at least 2 weeks and less than 36 months prior to consent. Participants were randomly assigned to gabapentin (titrated to maximum dose 2700 mg daily) or placebo for 16 weeks. At inclusion to the trial, participants were asked to provide a saliva sample for inclusion in this study.
# (§2) Cases were categorised into two phenotypes assessing the analgesic response to gabapentin and the degree of intolerance (side-effect burden). Gabapentin analgesic response was defined categorically using the coprimary outcomes of the GaPP2 trial: worst and average pain. Gabapentin ‘responders’ were defined as having reported a ≥30% reduction in worst and/or average pain scores on a numerical rating scale (1-10) after 12 weeks of gabapentin exposure. Gabapentin intolerance was also categorised categorically using a cut-off of ≥3 side-effects reported during the study period. Cases were categorised into ≥3 side-effects and <3 side-effects.
# [5] = tested on: women with chronic pelvic pain; test: Mechanistic fMRI study: brain response to abdominal punctate stimuli before and after 12 weeks of treatment; type: in vivo, human; conditions: rs4442490 TT responders (n = 2) compared with TG/GG non-responders (n = 5); brain regions of Table 4
# Source text: Within the sample taking part in the gabapentin RCT, a small number also took part in a mechanistic fMRI study, undergoing MRI brain scans before and after 12 weeks of treatment. […] Punctate task fMRI pre-processing is described in the supplementary materials. For those for whom both genetic and imaging data was available, the gabapentin pre- and post-treatment scans were compared. The first-level contrast of post-treatment>pre-treatment punctate vs rest was taken into a random effects analysis comparing SNP variants, with clusters achieving a whole-brain, FWE-corrected significance of p<0.05 being reported.
# [6] = tested on: women with chronic pelvic pain; test: GaPP2 trial secondary analysis: gabapentin intolerance (side-effect burden); type: in vivo, human; conditions: side-effects reported during the study period; genotyped participants
# Source text: as §1
# as §2, with “Cases were categorised into ≥3 side-effects and <3 side-effects.” left out
# [7] = Pain non-responder group (n = 46)
# [8] = after 12 weeks of gabapentin exposure, genotyped participants
smiles,measurement,setting,value
NCC1(CC(=O)O)CCCCC1 [gabapentin],effect on brain region in response to abdominal punctate stimuli (functional MRI),[1],appeared to exert an effect on the anterior cingulate cortex
same,improvement of worst or average pain scores versus placebo,[2],not superior to placebo
same,side-effects versus placebo,[3],associated with more side-effects
same,"Average pain (NRS), End of study",[4]; [7],5.8
same,"Worst pain (NRS), End of study",[4]; [7],9
same,"Average pain (NRS), End of study","[4]; Pain responder group (n = 31), gabapentin titrated to maximum 2700 mg daily",2.5
same,"Worst pain (NRS), End of study",[4]; Pain responder group (n = 31),6
same,number of pain non-responders,[4]; [8],(n = 46)
same,number of pain responders (≥30% reduction in worst and/or average pain scores),[4]; [8],(n = 31)
same,average reduction in average pain,[4]; subjects in the gabapentin pain responder group,47%
same,fMRI punctate activation after treatment versus before,[5],decrease in punctate activation
same,number of participants with <3 side-effects,[6],<3 side-effects (n = 23)
same,number of participants with ≥3 side-effects,[6],≥3 side-effects (n = 53)
